The supplement of paper PMC8149375

Columns and labels:
Conditions in all cases: treatment: drug alone; 5 days
SN12C [1] = assay: AUC of dose-response viability curve, drug alone (arbitrary (AUC of normalised viability)); higher = less growth inhibition
Description: (§1)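 Primary HTS: 8 RCC cell lines treated with 8 doses (up to 10 uM) of each library drug alone for 5 days; viability read by CellTiter-Glo and normalised to DMSO. GI50 was fitted with XLfit (4-parameter), AUC is the area under the dose-response curve, and minimum viability is the lowest fraction of DMSO viability across doses.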

UO-31 [2] = assay: as above
Description: as §1

A498 [3] = assay: as above
Description: as §1

ACHN [4] = assay: as above
Description: as §1

CAKI-1 [5] = assay: as above
Description: as §1

769-P [6] = assay: as above
Description: as §1

786-O [7] = assay: as above
Description: as §1

TK-10 [8] = assay: as above
Description: as §1

SN12C [9] = assay: GI50, drug alone; higher = less potent
Description: as §1

UO-31 [10] = assay: GI50, drug alone; higher = less potent
Description: as §1

A498 [11] = assay: GI50, drug alone; higher = less potent
Description: as §1

ACHN [12] = assay: GI50, drug alone; higher = less potent
Description: as §1

CAKI-1 [13] = assay: GI50, drug alone; higher = less potent
Description: as §1

769-P [14] = assay: GI50, drug alone; higher = less potent
Description: as §1

786-O [15] = assay: GI50, drug alone; higher = less potent
Description: as §1

TK-10 [16] = assay: GI50, drug alone; higher = less potent
Description: as §1

SN12C [17] = assay: minimum viability across doses, drug alone, relative to DMSO (fraction); higher = less growth inhibition
Description: as §1

UO-31 [18] = assay: as above
Description: as §1

A498 [19] = assay: as above
Description: as §1

ACHN [20] = assay: as above
Description: as §1

CAKI-1 [21] = assay: as above
Description: as §1

769-P [22] = assay: as above
Description: as §1

786-O [23] = assay: as above
Description: as §1

TK-10 [24] = assay: as above
Description: as §1

| GI50, drug alone (ACHN [12]) | GI50, drug alone (786-O [15]) | SMILES | AUC of dose-response viability curve (SN12C [1]) | AUC of dose-response viability curve (UO-31 [2]) | AUC of dose-response viability curve (A498 [3]) | AUC of dose-response viability curve (ACHN [4]) | AUC of dose-response viability curve (CAKI-1 [5]) | AUC of dose-response viability curve (769-P [6]) | AUC of dose-response viability curve (786-O [7]) | AUC of dose-response viability curve (TK-10 [8]) | GI50, drug alone (SN12C [9]) | GI50, drug alone (UO-31 [10]) | GI50, drug alone (A498 [11]) | GI50, drug alone (CAKI-1 [13]) | GI50, drug alone (769-P [14]) | GI50, drug alone (TK-10 [16]) | minimum viability across doses (SN12C [17]) | minimum viability across doses (UO-31 [18]) | minimum viability across doses (A498 [19]) | minimum viability across doses (ACHN [20]) | minimum viability across doses (CAKI-1 [21]) | minimum viability across doses (769-P [22]) | minimum viability across doses (786-O [23]) | minimum viability across doses (TK-10 [24]) |
| --- | --- | --- | --- | --- | --- | --- | --- | --- | --- | --- | --- | --- | --- | --- | --- | --- | --- | --- | --- | --- | --- | --- | --- | --- |
| 0.0755 µM | 0.0268 µM | O=C(Cc1ccc(-c2ccc(OCCN3CCOCC3)cc2)cn1)NCc1ccccc1 [KX2-391] | 1.72 | 1.48 | 1.84 | 1.66 | 1.67 | 1.43 | 0.9 | 1.95 | 0.115 µM | 0.0852 µM | 0.0893 µM | 0.0797 µM | 0.0606 µM | 0.193 µM | 0.102 | 0.00967 | 0.177 | 0.113 | 0.142 | 0.0797 | 0.00471 | 0.27 |
| > 10 µM | > 10 µM | COc1cc2nccc(Oc3ccc(NC(=O)Nc4ccc(F)cc4F)c(F)c3)c2cc1OC [Ki8751] | 3.45 | 2.83 | 5.49 | 3.13 | 3.34 | 3.31 | 3.06 | 3.08 | > 10 µM | 0.445 µM | > 10 µM | 7.43 µM | > 10 µM | > 10 µM | 0.877 | 0.00557 | 1 | 0.574 | 0.403 | 0.559 | 0.673 | 0.72 |
| 5.29 µM | > 10 µM | CS(=O)(=O)CCNCc1ccc(-c2ccc3ncnc(Nc4ccc(OCc5cccc(F)c5)c(Cl)c4)c3c2)o1.Cc1ccc(S(=O)(=O)O)cc1.Cc1ccc(S(=O)(=O)O)cc1 [Lapatinib Ditosylate (Tykerb)] | 3.16 | 4.64 | 3.99 | 2.78 | 3.24 | 2.86 | 2.9 | 2.51 | > 10 µM | > 10 µM | > 10 µM | 9.61 µM | 7.1 µM | 3.78 µM | 0.734 | 1.05 | 0.929 | 0.419 | 0.48 | 0.455 | 0.471 | 0.39 |
| > 10 µM | < 0.003 µM | Nc1cccc2c1CN(C1CCC(=O)NC1=O)C2=O (stereo unspecified) [Lenalidomide (Revlimid)] | 3.28 | 5.03 | 4.04 | 3.29 | 3.56 | 3.64 | 1.86 | 3.21 | > 10 µM | > 10 µM | > 10 µM | > 10 µM | > 10 µM | > 10 µM | 0.865 | 1.19 | 0.98 | 0.878 | 0.972 | 0.963 | 0.325 | 0.864 |
